Holding throughout (format): cell-based, human
In one experiment the test system is Pa13 gene. Put plainly: Pa13 gene expression in SKM cells with siRNA-reduced PPARα expression. The conditions noted are these: SKMU cells with reduced PPARα expression. From the text:
SiRNA oligos specific to PPARα were designed and used to knock-down or reduce the expression level of PPARα in human SKMU cells following procedures known to those skilled in the art (Brummelkamp et al., 2002, Science, 296: 550-553). Four sets of siRNA oligo were originally designed using GenBank accession number S74349 (human peroxisome proliferator activated receptor alpha, cDNA; PPARα) as the template, and the software, Target Finder (Ambion, Austin, Tex.). […] The sequences for the two sets of siRNA correspond to 907 bp to 927 bp (SEQ ID NO: 21, 5′-[…] A) and 1106 bp to 1126 bp of the cDNA (SEQ ID NO: 22, 5′-[…] T) relative to the first nucleotide of the start codon. The oligos were chemically synthesized by Ambion Inc. (Austin, Tex.). The universal negative control siRNA oligo was purchased from Ambion.
Human primary skeletal muscle cells (hSKM, provided by Cambrex, Md.) were prepared the day before transfection at the density of 4.67×10^4 cells/per 60 mm dish (about 20% confluence). The cells were cultured at 37° C., 5% CO2 for 24 hrs with antibiotics-free SKGM medium (Cambrex, Md.). […]
Again, total RNA was isolated from the cells and real-time PCR was performed and the expression levels of target genes of interest, such as Pa9, 13 and 21, were quantitatively measured using the RT-PCR technique described in Example 1.

Experiment [1] concerns Pa9 gene. Put plainly: Pa9 gene expression by real-time RT-PCR in primary skeletal muscle cells. To be noted: for Pa9 (W38098) gene expression, Percentage ± SE (%): about 18-20 hours, vehicle control = 100; for Pa9 gene expression, Fold of Induction: Veh = 1.00. The text has this: (§1) Human hepatocyte HuH7 cells, which are epithelial cells of liver, were obtained from Japan Health Science Research Resources Bank (Osaka, Japan). Human primary adipocytes, which are connective tissue cells specialized for the synthesis and storage of fat, were obtained from Zen-Bio, Inc (Research Triangle Park, NC). Human primary skeletal muscle cells (SKMC) were obtained from Cambrex Bio Science (Walkersville, Md.). PPARα agonists, Wy14643 (Agatha, et al, 2000, Archives of Biochemistry and Biophysics 380:353-359) and fenofibrates were obtained from Cayman Chemical (Ann Arbor, Mich.) and Sigma (St Louis, Mo.), respectively.
(§2) Human HuH7 cells were cultured in Dulbecco's Modified Eagle Medium with 10% Fetal Bovine Serum (Gibco, N.Y.). Cells were treated with charcoal-stripped, delipidated calf serum (5%) (Sigma, St Louis, Mo.) for about 4-18 hours. Then, cells were treated with different concentrations of PPARα agonist (Wy14643 or fenofibrates) for about 20-24 h. Human SKM cells were cultured in Skeletal Muscle Growth Medium (Cambrex Bio Science, Walkersville, Md.), and were treated with different concentrations of PPARα agonist (Wy14643 or fenofibrates) for about 18-20 hours. Human primary adipocytes were cultured in Preadipocyte Medium, (Cat #PM—1, Zen-Bio, Inc., Research Triangle Park, NC), and were treated with different concentrations of PPARα agonist (Wy14643 or fenofibrates) for about 18-20 hours.
(§3) Total RNA was purified from cultured cells following the protocol provided by the manufacturer (Trizon method, Invitrogen Inc. Ca). The polymerase chain reaction (PCR) primers and fluorescent probes (TagMan probes) for Pa9, Pa13, and Pa21 were designed from GenBank sequences of accession numbers W30988, AB000584, and NM_080725, respectively. The primers and probes were designed using the software PrimerDesign (Applied Biosystems, Foster City, Calif.). The PCR primers for Pa9 were SEQ ID NO: 7, (5-[…]) and SEQ ID NO: 8 (5-[…]). […] The PCR primers for Pa13 were SEQ ID NO: 10 (5-[…], T) and SEQ ID NO: 11 (5-[…] T). […] The PCR primers for Pa21 were SEQ ID NO: 13 (5-[…] C) and SEQ ID NO: 14 (5-[…]). […] All primers and probes were synthesized by Keystone Labs (Camarillo, Calif.).
(§4) Reverse transcription (RT) and PCR were conducted in one step using “One-Step RT-PCR Master Mix Reagent” kit (Applied Biosystems, Foster City, Calif.) in ABI PRISM 7700 Sequence Detection System (Applied Biosystems). Each reaction was performed in a total volume of 25 μl containing 40 ng of total RNA. The reaction condition was: 48° C. for 30 minutes, 60° C. for 30 minutes, 94° C. for 5 minutes, followed by 40 cycles of 94° C. for 20 seconds and 60° C. for 1 minute. The primers for 18S ribosomal RNA were developed and provided by Applied Biosystems. The measurement of human 18S ribosomal RNA was used as an internal control for normalization of measuring and loading errors. PCR data were collected by Ct value (the cycle number at which logarithmic PCR plots cross a calculated threshold line) according to the manufacturer's guidelines and the value was used to determine the Δ^Ct (Ct of the target gene minus the Ct of 18S ribosomal RNA controls). Relative mRNA level was calculated using the equation 2^−ΔΔCt as described previously (Heid et al., 1996, Genome Res. 6:986-994).
The nucleotide sequence of the human FDRG gene (AX278133) is provided in SEQ ID NO: 1 and the sequence alignment between W30988 and FDRG gene is shown in FIG. 1. […] Quantitative real-time RT-PCR was performed to test whether gene expression of the human FDRG gene is regulated by PPARα.
Background: In qPCR the cycle at which signal appears reflects the starting amount.

The subject of experiment [2] is Pa9 gene. Put plainly: Pa9 gene expression by real-time RT-PCR in HuH7 hepatocytes. The conditions noted are these: for Pa9 (W38098) gene expression, Percentage ± SE (%): HuH7 hepatocytes, about 20-24 h, vehicle control = 100.
From the text: as §1, §2, §3, §4

Experiment [3] has as its system Pa9 gene. Put plainly: Pa9 gene expression by real-time RT-PCR in primary adipocytes. To be noted: about 18-20 hours, vehicle control = 100.
From the text: as §1, §2
Total RNA was purified from cultured cells following the protocol provided by the manufacturer (Trizon method, Invitrogen Inc. Ca). The polymerase chain reaction (PCR) primers and fluorescent probes (TagMan probes) for Pa9, Pa13, and Pa21 were designed from GenBank sequences of accession numbers W30988, AB000584, and NM_080725, respectively. The primers and probes were designed using the software PrimerDesign (Applied Biosystems, Foster City, Calif.). The PCR primers for Pa9 were SEQ ID NO: 7, (5-[…]) and SEQ ID NO: 8 (5-[…]). […] The PCR primers for Pa13 were SEQ ID NO: 10 (5-[…], T) and SEQ ID NO: 11 (5-[…] T). […] The PCR primers for Pa21 were SEQ ID NO: 13 (5-[…] C) and SEQ ID NO: 14 (5-[…]). […]
Reverse transcription (RT) and PCR were conducted in one step using “One-Step RT-PCR Master Mix Reagent” kit (Applied Biosystems, Foster City, Calif.) in ABI PRISM 7700 Sequence Detection System (Applied Biosystems). […] PCR data were collected by Ct value (the cycle number at which logarithmic PCR plots cross a calculated threshold line) according to the manufacturer's guidelines and the value was used to determine the Δ^Ct (Ct of the target gene minus the Ct of 18S ribosomal RNA controls). Relative mRNA level was calculated using the equation 2^−ΔΔCt as described previously (Heid et al., 1996, Genome Res. 6:986-994).

SMILES strings stand for the structures.

On to `Cc1cccc(Nc2cc(Cl)nc(SCC(=O)O)n2)c1C` [Wy14643], for which, in the experiment on Pa13 gene, the “induction of Pa13 gene expression (FIG. 6)” value is on record as “no detectable induction”. In addition, the “Pa9 (W38098) gene expression, Percentage ± SE (%)” value (shortened to “Pa9 … Percentage ± SE (%)”) in the experiment on Pa9 gene [1] (3 uM) is recorded as 110 ± 24.5%; with Pa9 gene [1] (10 uM), 230 ± 35.7%; with Pa9 gene [1] (30 uM) it was 870 ± 30%; with Pa9 gene [1] (100 uM), 860 ± 0.9%; in the experiment on Pa9 gene [1] (300 uM), 610 ± 10.2%; in the experiment with Pa9 gene [2] (3 uM), 90 ± 17%. Also, the “Pa9 … Percentage ± SE (%)” value with Pa9 gene [2] (10 uM) was determined as 190 ± 62.1%; with Pa9 gene [2] (30 uM), 200 ± 48%; in the experiment on Pa9 gene [2] (100 uM) it was 540 ± 57.8%; in the experiment with Pa9 gene [2] (300 uM) it was 690 ± 42.8%; with Pa9 gene [3] (10 uM), 124 ± 7.2%; in the experiment on Pa9 gene [3] (50 uM), 358 ± 6.9%. Also, the “Pa9 … Percentage ± SE (%)” value in the experiment on Pa9 gene [3] (250 uM) worked out at 437 ± 17.3%. Further, the “Pa9 gene expression, Fold of Induction” value in the experiment with Pa9 gene [1] (30 uM) worked out at 3.64 fold; with Pa9 gene [1] (100 uM) it was 6.45 fold. For the same compound, in the experiment on Pa9 gene [2] (human HuH7 cells, primary SKMU cells, or primary adipocytes (Tables 1-3)), the “gene expression of Pa9, Pa13, or Pa21 (statement in words)” value is “increased gene expression”.

For the origin of these results see patent US20050191668A1, “Methods of using peroxisome proliferator-activated receptor alpha target genes” (priority 2004, published 2005).
